Measured values published in PMC8632988, “Inhibition of SYK and cSrc kinases can protect bone and cartilage in preclinical models of osteoarthritis and rheumatoid arthritis” (Scientific Reports, 2021).
Several values for one entry are separate records, joined by “and”; a condition that tells them apart may be missing. Equal values may be shown once.

Test system: DBA/1 mice, CIA model
Assay: Collagen-induced arthritis model in mice
Type: in vivo, mouse
Set-up: Total AUC Sum (d1-11) / Total AUC Sum (d1-11), Mean: scale not given here
Description: Collagen-induced arthritis (CIA) model was performed at Bolder BioPATH, USA. Study design and animal usage was approved by Bolder BioPATH’s Institutional Animal Care and Use Committee. CIA was induced in 6–7 week old male DBA/1 mice with body weight of 15–26 g (Harlan, Inc) by intradermal injection of Freund’s Complete Adjuvant (Difco) containing bovine type II collagen (Bolder BioPATH) on day 0 and again on day 21 according to the standard protocol. […] After that mice were randomized into six groups: a control group of four, vehicle group and four treatment groups of ten mice each. […] Each paw was scored daily for inflammation. Therapeutic and prophylactic paws were considered. At study termination mice were euthanized by CO2 inhalation followed by cervical dislocation. Fore paws, hind paws, and knees were removed for microscopy.
Mice were weighed on arthritis days 1, 3, 5, 7, 9, and 11 (prior to necropsy). Daily clinical scores were given for each of the paws (right front, left front, right rear, left rear) on days 1–11 using the following criteria:
After 1–2 days in fixative and 4–5 days in 5% formic acid for decalcification, tissues were trimmed, processed for paraffin embedding, sectioned at 8 µm and stained with toluidine blue. Hind paws and knees were embedded and sectioned in the frontal plane. Two joints from each animal were processed for histopathology evaluation. The joints were then scored by two independent readers as indicated below. When scoring, severity of changes as well as number of individual joints affected were considered. When only 1–3 joints of the paws or ankles out of a possibility of numerous metacarpal/metatarsal/digit or tarsal/tibiotarsal joints were affected, an arbitrary assignment of a maximum score of 1, 2 or 3 for parameters below was given depending on severity of changes. If more than 3 joints were involved, the criteria below were applied to the most severely affected/majority of joints.

[1] = all joints, MT-SYK-03 103 mg/kg PO, BID (Group 4)
[2] = all joints, MT-SYK-03 103 mg/kg PO, BID (Group 4), group mean
[3] = all joints, MT-SYK-03 103 mg/kg PO, BID (Group 4), individual animals, 103 mg/kg

COc1cc(Nc2ncnc(Nc3cc4c(cn3)NC(=O)C(C)(C)O4)n2)cc(OC)c1OC [MT-SYK-03]
% inhibition to Vehicle, Summed Prophylactic (Non-Enrollment) Paw Score (MT-SYK-03 103 mg/kg PO, BID, Day 11): 17% | Summed Prophylactic (Non-Enrollment) Paw Score (MT-SYK-03 103 mg/kg PO, BID, Day 11, group mean): 7.30 | Summed Prophylactic (Non-Enrollment) Paw Score (MT-SYK-03 103 mg/kg PO, BID, Day 11, individual animals, 103 mg/kg): 9 and 3 and 12 and 8 and 2 and 10 and 7 and 5 | Total AUC Sum (d1-11), Prophylactic (Non-Enrollment) Paw Score (MT-SYK-03 103 mg/kg PO, BID, group mean): 54.15 | Total AUC Sum (d1-11), Prophylactic (Non-Enrollment) Paw Score (MT-SYK-03 103 mg/kg PO, BID, individual animals, 103 mg/kg): 67.5 and 27.5 and 71.0 and 61.0 and 12.0 and 80.0 and 70.5 and 51.5 and 63.0 and 37.5 | % inhibition, Bone Resorption score [1]: 29% | % inhibition, Cartilage Damage score [1]: 17% | % inhibition, Inflammation score [1]: 7% | % inhibition, Pannus score [1]: 29% | % inhibition, Periosteal Bone Formation score [1]: 18% | % inhibition, Periosteal Bone Width [1]: 20% | % inhibition, Summed Scores [1]: 18% | Histopathology Scores Bone Resorption, Mean [2]: 1.23 | Histopathology Scores Cartilage Damage, Mean [2]: 2.74 | Histopathology Scores Inflammation, Mean [2]: 3.44 | Histopathology Scores Pannus, Mean [2]: 1.23 | Histopathology Scores Periosteal Bone Formation, Mean [2]: 0.93 | Histopathology Scores Summed Scores, Mean [2]: 9.58 | Periosteal Bone Width (40*25x measure), Mean [2]: 79.33 μm | Histopathology Scores Bone Resorption [3]: 0.83 and 0.75 and 1.17 and 1.92 and 1.42 and 2.00 and 1.75 and 0.33 | Histopathology Scores Cartilage Damage [3]: 2.33 and 2.00 and 2.58 and 4.00 and 1.67 and 2.75 and 4.17 and 3.25 and 0.67 | Histopathology Scores Inflammation [3]: 2.83 and 3.17 and 3.83 and 4.67 and 1.92 and 3.42 and 4.50 and 4.33 | Histopathology Scores Pannus [3]: 0.83 and 0.75 and 1.17 and 1.92 and 1.42 and 2.00 and 1.75 and 0.33 | Histopathology Scores Periosteal Bone Formation [3]: 0.67 and 1.17 and 1.33 and 0.33 and 1.67 and 0.83 | Histopathology Scores Summed Scores [3]: 7.50 and 7.33 and 9.92 and 13.83 and 5.42 and 10.17 and 11.58 and 12.67 and 3.58 | Periosteal Bone Width (40*25x measure) [3]: 40.00 μm and 53.33 μm and 106.67 μm and 120.00 μm and 33.33 μm and 86.67 μm and 140.00 μm and 80.00 μm and 26.67 μm | Histopathology scores for knee and ankle joints (murine CIA): decreased histopathology scores | Periosteal bone width of paw and knee joints (murine CIA): slightly decreased | Cartilage damage, bone resorption and inflammation in knees (microphotographs) (murine CIA, 103 mg/kg oral): decreasing of cartilage damage, bone resorption and inflammation in knees | Clinical arthritis score (severity of inflammation) (murine CIA, MT-SYK-03 103 mg/kg oral): reduced the severity of inflammation | % inhibition to Vehicle, Total AUC Sum (d1-11) (therapeutic/enrollment paw score, MT-SYK-03 103 mg/kg PO, BID (Group 4)): 6% | Total AUC Sum (d1-11), Mean (therapeutic/enrollment paw score, MT-SYK-03 103 mg/kg PO, BID (Group 4), group mean): 59.75 | Total AUC Sum (d1-11) (therapeutic/enrollment paw score, MT-SYK-03 103 mg/kg PO, BID (Group 4), individual animals, 103 mg/kg): 79 and 81 and 73 and 33 and 42 and 102 and 83 and 38 and 36 | % inhibition to Vehicle, paw score Day 1 (therapeutic/enrollment paws, Day 1, MT-SYK-03 103 mg/kg PO, BID (Group 4)): 0% | Average Paw Score Per Arthritis Day, Day 1, Mean (therapeutic/enrollment paws, Day 1, MT-SYK-03 103 mg/kg PO, BID (Group 4), group mean): 3.20 | Average Paw Score Per Arthritis Day, Day 1 (therapeutic/enrollment paws, Day 1, MT-SYK-03 103 mg/kg PO, BID (Group 4), individual animals, 103 mg/kg): 4 and 2 and 6 | % inhibition to Vehicle, paw score Day 2 (therapeutic/enrollment paws, Day 2, MT-SYK-03 103 mg/kg PO, BID (Group 4)): 19% | Average Paw Score Per Arthritis Day, Day 2, Mean (therapeutic/enrollment paws, Day 2, MT-SYK-03 103 mg/kg PO, BID (Group 4), group mean): 3.80 | Average Paw Score Per Arthritis Day, Day 2 (therapeutic/enrollment paws, Day 2, MT-SYK-03 103 mg/kg PO, BID (Group 4), individual animals, 103 mg/kg): 4 and 6 and 2 and 3 | % inhibition to Vehicle, paw score Day 3 (therapeutic/enrollment paws, Day 3, MT-SYK-03 103 mg/kg PO, BID (Group 4)): 8% | Average Paw Score Per Arthritis Day, Day 3, Mean (therapeutic/enrollment paws, Day 3, MT-SYK-03 103 mg/kg PO, BID (Group 4), group mean): 5.40 | Average Paw Score Per Arthritis Day, Day 3 (therapeutic/enrollment paws, Day 3, MT-SYK-03 103 mg/kg PO, BID (Group 4), individual animals, 103 mg/kg): 6 and 8 and 3 and 4 and 9 | % inhibition to Vehicle, paw score Day 4 (therapeutic/enrollment paws, Day 4, MT-SYK-03 103 mg/kg PO, BID (Group 4)): 6% | Average Paw Score Per Arthritis Day, Day 4, Mean (therapeutic/enrollment paws, Day 4, MT-SYK-03 103 mg/kg PO, BID (Group 4), group mean): 5.80 | Average Paw Score Per Arthritis Day, Day 4 (therapeutic/enrollment paws, Day 4, MT-SYK-03 103 mg/kg PO, BID (Group 4), individual animals, 103 mg/kg): 7 and 8 and 6 and 4 and 10 and 3 | % inhibition to Vehicle, paw score Day 5 (therapeutic/enrollment paws, Day 5, MT-SYK-03 103 mg/kg PO, BID (Group 4)): 6% | Average Paw Score Per Arthritis Day, Day 5, Mean (therapeutic/enrollment paws, Day 5, MT-SYK-03 103 mg/kg PO, BID (Group 4), group mean): 6.20 | Average Paw Score Per Arthritis Day, Day 5 (therapeutic/enrollment paws, Day 5, MT-SYK-03 103 mg/kg PO, BID (Group 4), individual animals, 103 mg/kg): 8 and 7 and 4 and 11 and 3 and 9 | % inhibition to Vehicle, paw score Day 6 (therapeutic/enrollment paws, Day 6, MT-SYK-03 103 mg/kg PO, BID (Group 4)): 5% | Average Paw Score Per Arthritis Day, Day 6, Mean (therapeutic/enrollment paws, Day 6, MT-SYK-03 103 mg/kg PO, BID (Group 4), group mean): 6.30 | Average Paw Score Per Arthritis Day, Day 6 (therapeutic/enrollment paws, Day 6, MT-SYK-03 103 mg/kg PO, BID (Group 4), individual animals, 103 mg/kg): 8 and 4 and 11 and 3 and 9 | % inhibition to Vehicle, paw score Day 7 (therapeutic/enrollment paws, Day 7, MT-SYK-03 103 mg/kg PO, BID (Group 4)): 3% | Average Paw Score Per Arthritis Day, Day 7, Mean (therapeutic/enrollment paws, Day 7, MT-SYK-03 103 mg/kg PO, BID (Group 4), group mean): 6.60 | Average Paw Score Per Arthritis Day, Day 7 (therapeutic/enrollment paws, Day 7, MT-SYK-03 103 mg/kg PO, BID (Group 4), individual animals, 103 mg/kg): 9 and 8 and 4 and 11 | % inhibition to Vehicle, paw score Day 8 (therapeutic/enrollment paws, Day 8, MT-SYK-03 103 mg/kg PO, BID (Group 4)): 3% | Average Paw Score Per Arthritis Day, Day 8, Mean (therapeutic/enrollment paws, Day 8, MT-SYK-03 103 mg/kg PO, BID (Group 4), group mean): 6.80 | Average Paw Score Per Arthritis Day, Day 8 (therapeutic/enrollment paws, Day 8, MT-SYK-03 103 mg/kg PO, BID (Group 4), individual animals, 103 mg/kg): 10 and 9 and 3 and 5 and 11 and 4 | % inhibition to Vehicle, paw score Day 9 (therapeutic/enrollment paws, Day 9, MT-SYK-03 103 mg/kg PO, BID (Group 4)): 5% | Average Paw Score Per Arthritis Day, Day 9, Mean (therapeutic/enrollment paws, Day 9, MT-SYK-03 103 mg/kg PO, BID (Group 4), group mean): 6.90 | Average Paw Score Per Arthritis Day, Day 9 (therapeutic/enrollment paws, Day 9, MT-SYK-03 103 mg/kg PO, BID (Group 4), individual animals, 103 mg/kg): 10 and 9 and 3 and 5 and 12 and 4 | % inhibition to Vehicle, paw score Day 10 (therapeutic/enrollment paws, Day 10, MT-SYK-03 103 mg/kg PO, BID (Group 4)): 7% | Average Paw Score Per Arthritis Day, Day 10, Mean (therapeutic/enrollment paws, Day 10, MT-SYK-03 103 mg/kg PO, BID (Group 4), group mean): 6.90 | Average Paw Score Per Arthritis Day, Day 10 (therapeutic/enrollment paws, Day 10, MT-SYK-03 103 mg/kg PO, BID (Group 4), individual animals, 103 mg/kg): 10 and 9 and 3 and 5 and 12 and 4 | % inhibition to Vehicle, paw score Day 11 (therapeutic/enrollment paws, Day 11, MT-SYK-03 103 mg/kg PO, BID (Group 4)): 7% | Average Paw Score Per Arthritis Day, Day 11, Mean (therapeutic/enrollment paws, Day 11, MT-SYK-03 103 mg/kg PO, BID (Group 4), group mean): 6.90 | Average Paw Score Per Arthritis Day, Day 11 (therapeutic/enrollment paws, Day 11, MT-SYK-03 103 mg/kg PO, BID (Group 4), individual animals, 103 mg/kg): 10 and 9 and 3 and 5 and 12 and 4
